One assay relates to HDAC. Conditions: statement from cited literature; cited from earlier work.
For a further assay, the system named is IL-10 mRNA. Briefly: IL-10 mRNA in MRL/lpr splenocytes. The class given is cell-based, mouse. Conditions: splenocytes from 10-wk old MRL/lpr mice pretreated 18 hr, stimulated 6 or 18 hr. Here is the method:
In investigating whether TSA down-regulates IL-10 mRNA, MRL/lpr splenocytes were treated with increasing concentrations of TSA. The heightened, constitutive expression of IL-10 mRNA confirms previous findings (FIGS. 11A & 11B, lane 1). […] To address whether TSA and SAHA down-regulate LPS- and IFN-γ induced IL-10 transcript, splenocytes from 10-wk old MRL/lpr mice were treated in the absence or presence of TSA or SAHA for 18 hr before LPS and IFN-γ stimulation for 6 or 18 hr.

In another assay the test system is TGF-β1 protein. The experiment in a line: TGF-β1 protein secretion by PBMCs. The conditions noted are these: SLE PBMCs exposed to TSA and SAHA (summary statement). The class given is cell-based, human. Here is the method:
(§1) Gene expression of TGF-β1 was tested to determine if the gene expression is suppressed by deacetylation of histones in SLE. In this determination, SLE PBMCs or isolated T cells were treated with the histone deacetylase inhibitors (HDIs), TSA or SAHA, for 18hr. […] Subsequently, semi-quantitative PCR was performed to determine the amounts of […] transcripts in SLE and control T cells treated with vehicle or TSA (1000 ng/ml). […] There is no change in GAPDH transcript in normal and SLE T cells after treatment of HDIs. Increased TGF-β1 transcript was associated with a subsequent increase in TGF-β1 protein secretion by SLE PBMCs. When compared to vehicle treated PBMCs, total TGF-β1 protein in culture supernatants from SLE PBMCs increased by approximately 30%. In contrast, there was no increase in total TGF-β1 secretion in TSA treated cells in normal healthy controls. Similar results may be obtained by SAHA.

In another assay the test system is IL-12 p40 protein. Briefly: IL-12 p40 protein secretion by MRL/lpr splenocytes. The class given is cell-based, mouse. Conditions: splenocytes stimulated with LPS and IFN-γ 24 hr; stimulated control 45.3±9.1; p=0.003. Here is the method:
When splenocytes were activated with LPS (100 μg/ml) and IFN-γ 100U/ml) for 24 hr the mean (±SEM) IL-12 p40 secretion was 45.3±9.1 pg/ml.

Another assay has as its system IFN-γ mRNA. The experiment in a line: IFN-γ mRNA in MRL/lpr splenocytes. In kind it is cell-based, mouse. The method, then: In determining whether TSA can down-regulate IFN-γ mRNA, splenocytes from older, 24-wk MRL/lpr mice were treated with 0 to 500 ng/ml of TSA for 18 hr. […] Compared to splenocytes from 10-wk old mice that had low IFN-γ mRNA (FIG. 8B, lane 1), older mice had higher constitutive levels of IFN-γ transcripts normalized to the housekeeping gene, GAPDH (FIG. 8A, lane 1). […] Maximal inhibition of IFN-γ transcript consistently occurred at 500 ng/ml of TSA.
To establish whether TSA or SAHA down-regulates Con A-induced IFN-γ mRNA expression, splenocytes from 10-wk old mice were stimulated with Con A (10 μg/ml) for 18 hr. From previous kinetic studies, IFN-γ mRNA is maximally expressed when T cells are activated for 18 hr. […] Thus, both TSA and SAHA inhibit IFN-γ. mRNA up-regulation in response to mitogenic stimulation.

Assay [1] has as its system acetylated H3 and H4 histones. Briefly: Immunoblot of acetylated H3 and H4 histones in MRL/lpr splenocytes. The class given is cell-based, mouse. Conditions: 18 hr exposure. The text has this: One mechanism by which HDIs suppress transcription of cytokine genes in MRL/lpr splenocytes may be by increasing accumulation of acetylated histones which may result in chromatin remodeling. The accumulation of acetylated histones H3 and H4 in HDI-treated splenocytes was quantified to test this hypothesis. FIG. 12 is an immunoblot analysis of the acetylation levels of H3 and H4 histones.
(A western blot detects proteins with antibodies after separation by electrophoresis.)

The next assay relates to TGF-β1 mRNA. The experiment in a line: PCR of TGF-β1 mRNA in SLE and control T cells / PBMCs. The class given is cell-based, human. Conditions: SLE PBMCs exposed to TSA and SAHA (summary statement). The method, then: as §1
A further assay has as its system IL-6 protein. Briefly: IL-6 protein secretion by MRL/lpr splenocytes. In kind it is cell-based, mouse. The conditions noted are these: splenocytes with LPS and IFN-γ 72 hr; stimulated control 34.4±7.6 pg/ml; p=0.002. The method, then: (§2) In determining whether TSA or SAHA down-regulate IL-6 mRNA content, splenocytes from 24-wk MRL/lpr mice were treated with increasing concentrations of TSA for 18 hr. […] TSA decreased IL-6 transcript at a concentration of 100 ng/ml and exerted maximal inhibition at 300 ng/ml. To address whether TSA and SAHA down-regulate LPS- and IFN-γ induced IL-6 transcript levels, splenocytes from younger MRL/lpr mice were treated in the absence or presence of TSA or SAHA for 18 hr before LPS and IFN-γ stimulation for 6 or 18 hr. […] Next, the effect of TSA and SAHA on IL-6 protein secretion in stimulated splenocytes was measured (FIG. 10D). When splenocytes were cultured with LPS and IFN-γ for 72 hr, there was a mean (±SEM) 34.4±7.6 pg/ml of IL-6 protein secretion.

Assay [2] has as its system IL-12 p35 and p40 transcripts. The experiment in a line: IL-12 p35 and p40 transcripts in MRL/lpr splenocytes. The class given is cell-based, mouse. The conditions noted are these: splenocytes from 10-wk old MRL/lpr mice preincubated 18 hr, stimulated 6 or 18 hr. Here is the method: In this study, the question of whether TSA down-regulates transcription of both IL-12 p35 and p40 subunit mRNA was investigated. […] Splenocytes were stimulated with LPS and IFN-γ for 6 or 18 hr. […] When splenocytes were preincubated with TSA or SAHA for 18 hr and then stimulated with LPS and IFN-γ IL-12 p35 and p40 transcripts were undetectable (FIGS. 9B–D).

Another assay concerns IL-6 mRNA. Briefly: IL-6 mRNA in MRL/lpr splenocytes. In kind it is cell-based, mouse. The conditions noted are these: splenocytes from younger MRL/lpr mice pretreated 18 hr, stimulated 6 or 18 hr. Here is the method: as §2
A further assay deals with IFN-γ protein. The experiment in a line: IFN-γ protein secretion by MRL/lpr splenocytes. The class given is cell-based, mouse. Conditions: Con A-stimulated splenocytes from younger MRL/lpr mice, 72 hr; p=0.004. The text has this: The marked inhibition of IFN-γ transcript by these inhibitors prompted us to quantify IFN-γ protein secretion in splenocyte culture supernatants. Over 72 hr, Con A, but not LPS, stimulated splenocytes from younger MRL/lpr mice to secrete a mean (±SEM) 1,563.2±88.3 pg/ml of IFN-γ (FIG. 8D). […] Thus, inhibition of IFN-γ transcription by TSA and SAHA blocks secretion of IFN-γ protein by splenocytes.

Another assay has as its system iNOS mRNA. The experiment in a line: iNOS mRNA induction in MRL/lpr splenocytes. The class given is cell-based, mouse. The conditions noted are these: splenocytes from 10 wk old mice, LPS and IFN-γ 24 hr. From the text:
Excessive production of nitric oxide (NO) is crucial to the initiation and maintenance of glomerulonephritis in MRL/lpr mice. Pharmacologic inhibition of NO synthesis in MRL/lpr mice abrogates disease progression. In examining whether HDIs could suppress inducible nitric oxide synthetase (iNOS), splenocytes from 10 wk old mice were stimulated in the presence or absence of TSA or SAHA with LPS and IFN-γ for 24 hr. […] To determine whether HDIs could suppress nitric oxide secretion by mesangial cells, mesangial cells were stimulated with LPS ([…]) in the presence of vehicle or TSA for 24 hr. The supernatant from the cell culture was assayed for nitric oxide.

Assay [3] concerns acetylated H3 and H4 histones. Briefly: Western immunoblot of acetylated H3 and H4 histones in SLE PBMCs. In kind it is cell-based, human. Conditions: 1000 ng/ml TSA or 20 μM SAHA, 18 hr. The method, then:
The effect of TSA and SAHA was examined to determine if HDIs induce accumulation of acetylated histones in SLE PBMCs on the level of histone acetylation in SLE PBMCs. Following culture of PBMCs in the presence of vehicle, 1000 ng/ml TSA or 20 μM SAHA for 18 hr, histones were isolated.

For a further assay, the system named is IL-10 protein. The experiment in a line: IL-10 protein secretion by MRL/lpr splenocytes. The conditions noted are these: MRL/lpr splenocytes stimulated by LPS, Con A, or LPS+IFN-γ, 72 hr. In kind it is cell-based, mouse. From the text: To determine the effect of TSA and SAHA on IL-10 protein secretion, MRL/lpr splenocytes were stimulated with Con A, LPS, or LPS+IFN-γ for 72 hr in the absence or presence of TSA or SAHA. As shown in the FIG. 11D, splenocytes stimulated with Con A, LPS, or LPS+IFN-γ secreted a mean (±SEM) of 31.8±4.5, 32.3±1.9, and 34.8±4.9 pg/ml, respectively, of IL-10 protein.

Regarding `CC(=O)NCCCCCCNC(C)=O` [HBMA, Hexamethylene bisacetamide], the HDAC inhibition result in the assay with HDAC was “not effective as HDAC Inhibitors”.
In the case of `O=C(CCCCCCC(=O)Nc1ccccc1)NO` [SAHA, Suberoylanilide Hydroxamic Acid], in the assay on IL-10 mRNA, the “LPS- and IFN-γ induced IL-10 mRNA” value is on record as “no detectable IL-10 mRNA”. For the same molecule, the “rise in the synthesis of TGF-β1 protein” value in the assay on TGF-β1 protein was determined as 30%. The “IL-12 p40 secretion (mean±SEM)” value with IL-12 p40 protein stood at 9.1 ± 1.9 pg/mL. In addition, in the assay with IFN-γ mRNA (MRL/lpr splenocytes, data not shown), the “optimal dose in dose titration experiments” value came out at 10 µM. In addition, the “Con A-induced up-regulation of IFN-γ transcript” value in the assay on IFN-γ mRNA (splenocytes from 10-wk old mice preincubated 18 hr, Con A 10 μg/ml 18 hr, vs vehicle) is reported as “markedly reduced”. The figures for the “accumulation of acetylated H3 and H4 histones” value in assay [1] and in [3] were “marked increase” and “induced the accumulation”, respectively. The “increase in TGF-β1 transcript” value in the assay with TGF-β1 mRNA was “eight-fold”. Also, in the assay with IL-6 protein, the IL-6 protein secretion entry is on record as “no detectable IL-6 protein secretion”. Further, in [2], the “LPS and IFN-γ induced IL-12 p35 and p40 transcripts” value was “undetectable”. Moreover, the “LPS- and IFN-γ induced IL-6 mRNA” value with IL-6 mRNA is reported as “no detectable IL-6 mRNA”. The IFN-γ protein secretion entry in the assay with IFN-γ protein was “did not secrete detectable levels”. Besides, the “iNOS mRNA induction” value in the assay on iNOS mRNA is listed as “able to suppress iNOS mRNA induction”. The IL-10 protein secretion result with IL-10 protein is on record as “no detectable IL-10 secretion”.
Regarding mono-MTM-depudecin, in the assay on HDAC, the HDAC inhibition entry is “do not inhibit HDAC”.
Turning to `CCOC(=O)C(CCCCCC(=O)N(C)C)(CCCCCC(=O)N(C)C)C(=O)OCC` [EMBA, Diethyl bix(pentamethylene-N,N-dimethylcarboxamide) malonate], the HDAC inhibition entry in the assay on HDAC is “not effective as HDAC Inhibitors”.
